Test results as given in US12655116B2, “Substituted isophthalic acid diamides” (Bayer Aktiengesellschaft, priority 2020, dated 2026).

How the values were obtained:
VIOTR [1] = test: Pre-emergence herbicidal action against VIOTR; format: in vivo, Viola tricolor
In short: (§1)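 Herbicidal effect was assessed 3 weeks after treatment by visual comparison with untreated controls, 100% denoting dead plants. Aqueous WP or EC preparations had been applied at 600 to 800 l/ha with 0.2% wetting agent to the soil covering freshly sown seeds.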

ABUTH [2] = test: Pre-emergence herbicidal action against ABUTH; format: in vivo, Abutilon theophrasti
In short: as §1

ECHCG [3] = test: Post-emergence herbicidal action against ECHCG; format: in vivo, Echinochloa crus-galli
In short: (§2)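 Herbicidal effect was scored visually in percent after about 3 weeks in the greenhouse. Plants had been raised in sandy loam and treated post-emergence at the one-leaf stage with formulated compound at 600 to 800 l/ha water plus 0.2% wetting agent.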

AMARE [4] = test: Pre-emergence herbicidal action against AMARE; format: in vivo, Amaranthus retroflexus
In short: as §1

ECHCG [5] = test: Pre-emergence herbicidal action against ECHCG; format: in vivo, Echinochloa crus-galli
In short: as §1

MATIN [6] = test: Pre-emergence herbicidal action against MATIN; format: in vivo, Matricaria inodora
In short: as §1

DIGSA [7] = test: Pre-emergence herbicidal action against DIGSA; format: in vivo, Digitaria sanguinalis
In short: as §1

SETVI [8] = test: Post-emergence herbicidal action against SETVI; format: in vivo, Setaria viridis
In short: as §2

POLCO = test: Pre-emergence herbicidal action against POLCO; format: in vivo, Polygonum convolvulus; conditions: dosage 80 g/ha
In short: as §1

ALOMY [9] = test: Pre-emergence herbicidal action against ALOMY; format: in vivo, Alopecurus myosuroides; conditions: 80 g/ha, pre-emergence, scored visually after 3 weeks vs untreated controls (100% = plants have died, 0% = like control plants)
In short: as §1

SETVI [10] = test: Pre-emergence herbicidal action against SETVI; format: in vivo, Setaria viridis
In short: as §1

AVEFA [11] = test: Post-emergence herbicidal action against AVEFA; format: in vivo, Avena fatua; conditions: 20 g/ha, visual assessment about 3 weeks after treatment, 100% = plants have died, 0% = like control plants
In short: as §2

DIGSA [12] = test: Post-emergence herbicidal action against DIGSA; format: in vivo, Digitaria sanguinalis
In short: as §2

MATIN [13] = test: Post-emergence herbicidal action against MATIN; format: in vivo, Matricaria inodora; conditions: dosage 20 g/ha
In short: as §2

PHBPU = test: Post-emergence herbicidal action against PHBPU; format: in vivo, Pharbitis purpurea
In short: as §2

VERPE [14] = test: Post-emergence herbicidal action against VERPE; format: in vivo, Veronica persica; conditions: 20 g/ha
In short: as §2

VERPE [15] = test: Pre-emergence herbicidal action against VERPE; format: in vivo, Veronica persica; conditions: dosage 80 g/ha
In short: as §1

AMARE [16] = test: Post-emergence herbicidal action against AMARE; format: in vivo, Amaranthus retroflexus; conditions: 20 g/ha, visual assessment about 3 weeks after treatment, 100% = plants have died, 0% = like control plants
In short: as §2

ABUTH [17] = test: Post-emergence herbicidal action against ABUTH; format: in vivo, Abutilon theophrasti; conditions: visual assessment about 3 weeks after treatment vs untreated controls
In short: as §2

AVEFA [18] = test: Pre-emergence herbicidal action against AVEFA; format: in vivo, Avena fatua; conditions: Avena fatua, 504 h, pre-emergence
In short: as §1

VIOTR [19] = test: Post-emergence herbicidal action against VIOTR; format: in vivo, Viola tricolor; conditions: Viola tricolor, 504 h
In short: as §2

ALOMY [20] = test: Post-emergence herbicidal action against ALOMY; format: in vivo, Alopecurus myosuroides; conditions: Alopecurus myosuroides, 504 h, visual assessment about 3 weeks after treatment vs untreated controls
In short: as §2

[21] = 80 g/ha, scored visually after 3 weeks vs untreated controls (100% = plants have died, 0% = like control plants)
[22] = Setaria viridis, 504 h, dosage 20 g/ha

Compound: Cc1c(C(=O)Nc2nnnn2C)ccc(C(F)F)c1C(=O)NCC(F)F [Example 1-49]
- Pre-emergence action against VIOTR in % (VIOTR [1]; dosage 80 g/ha): 100%
- Pre-emergence action against ABUTH (herbicidal activity) (ABUTH [2]; [21]): 100%
- Pre-emergence action against ABUTH (herbicidal activity in percent) (ABUTH [2]; dosage 20 g/ha, scored visually after 3 weeks vs untreated controls, 100% = plants have died, 0% = like control plants): 80%
- Post-emergence action against ECHCG in % (ECHCG [3]; dosage 5 g/ha): 80%
- Post-emergence action against ECHCG in % (ECHCG [3]; dosage 20 g/ha): 90%
- Pre-emergence action against AMARE in % (AMARE [4]; 20 g/ha, scored visually after 3 weeks vs untreated controls, 100% = plants have died, 0% = like control plants): 100%
- Pre-emergence action against AMARE in % (AMARE [4]; [21]): 100%
- Pre-emergence action against ECHCG in % (ECHCG [5]; 80 g/ha): 80%
- Pre-emergence action against MATIN in % (MATIN [6]; dosage 20 g/ha): 90%
- Pre-emergence action against MATIN in % (MATIN [6]; dosage 80 g/ha): 100%
- Pre-emergence action against DIGSA in % (DIGSA [7]; dosage 20 g/ha): 90%
- Pre-emergence action against DIGSA in % (DIGSA [7]; dosage 80 g/ha): 100%
- Post-emergence action against SETVI in % (SETVI [8]; dosage 5 g/ha): 90%
- Post-emergence action against SETVI in % (SETVI [8]; dosage 20 g/ha): 100%
- Pre-emergence action against POLCO in % (POLCO): 90%
- Pre-emergence action against ALOMY (herbicidal activity) (ALOMY [9]): 80%
- Pre-emergence action against SETVI in % (SETVI [10]; dosage 80 g/ha): 80%
- Post-emergence action at 20 g/ha against AVEFA in % (AVEFA [11]): 80%
- Post-emergence action against DIGSA in % (DIGSA [12]; 5 g/ha): 80%
- Post-emergence action against DIGSA (DIGSA [12]; 20 g/ha): 90%
- Post-emergence action against MATIN in % (MATIN [13]): 80%
- Post-emergence action against PHBPU in % (PHBPU; dosage 5 g/ha): 80%
- Post-emergence action against PHBPU in % (PHBPU; dosage 20 g/ha): 90%
- Post-emergence action against VERPE in % (VERPE [14]): 90%
- Pre-emergence action against VERPE in % (VERPE [15]): 100%
- Post-emergence action at 20 g/ha against AMARE in % (AMARE [16]): 90%
- Post-emergence action against ABUTH in % (ABUTH [17]; dosage 5 g/ha): 90%
- Post-emergence action against ABUTH in % (ABUTH [17]; dosage 20 g/ha): 90%

Compound: CCNC(=O)c1c(C(F)F)ccc(C(=O)Nc2nnnn2C)c1Br [Example 1-226]
- pest or weed control at 20 g/ha (VIOTR [1]; Viola tricolor, 504 h, dosage 20 g/ha): 80%
- pest or weed control at 80 g/ha (VIOTR [1]; Viola tricolor, 504 h, dosage 80 g/ha): 100%
- pest or weed control at 80 g/ha (ABUTH [2]; Abutilon theophrasti, 504 h, 80 g/ha, scored visually after 3 weeks vs untreated controls (100% = plants have died, 0% = like control plants)): 90%
- pest or weed control at 5 g/ha (ECHCG [3]; Echinochloa crus-galli, 504 h, dosage 5 g/ha): 100%
- pest or weed control at 20 g/ha (ECHCG [3]; Echinochloa crus-galli, 504 h, dosage 20 g/ha): 100%
- pest or weed control at 20 g/ha (AMARE [4]; Amaranthus retroflexus, 504 h, 20 g/ha, scored visually after 3 weeks vs untreated controls, 100% = plants have died, 0% = like control plants): 100%
- pest or weed control at 80 g/ha (AMARE [4]; Amaranthus retroflexus, 504 h, 80 g/ha, scored visually after 3 weeks vs untreated controls, 100% = plants have died, 0% = like control plants): 100%
- pest or weed control at 20 g/ha (ECHCG [5]; Echinochloa crus-galli, 504 h, 20 g/ha): 80%
- pest or weed control at 80 g/ha (ECHCG [5]; Echinochloa crus-galli, 504 h, 80 g/ha): 100%
- pest or weed control at 80 g/ha (AVEFA [18]; 80 g/ha): 90%
- pest or weed control at 20 g/ha (AVEFA [18]; 20 g/ha, scored visually after 3 weeks, 100% = plants have died, 0% = like control plants): 80%
- pest or weed control at 20 g/ha (MATIN [6]; Tripleurospermum inodorum, 504 h, dosage 20 g/ha): 100%
- pest or weed control at 80 g/ha (MATIN [6]; Tripleurospermum inodorum, 504 h, dosage 80 g/ha): 100%
- pest or weed control at 80 g/ha (DIGSA [7]; Digitaria sanguinalis, 504 h, dosage 80 g/ha): 90%
- pest or weed control at 5 g/ha (SETVI [8]; Setaria viridis, 504 h, dosage 5 g/ha): 100%
- pest or weed control at 20 g/ha (SETVI [8]; [22]): 100%
- pest or weed control at 80 g/ha (POLCO; Fallopia convolvulus, 504 h): 90%
- pest or weed control at 80 g/ha (ALOMY [9]; Alopecurus myosuroides, 504 h): 90%
- pest or weed control at 20 g/ha (SETVI [10]; [22]): 100%
- pest or weed control at 80 g/ha (SETVI [10]; Setaria viridis, 504 h, dosage 80 g/ha): 100%
- pest or weed control at 20 g/ha (AVEFA [11]; Avena fatua, 504 h): 80%
- pest or weed control at 5 g/ha (VIOTR [19]; 5 g/ha): 100%
- pest or weed control at 20 g/ha (VIOTR [19]; 20 g/ha): 100%
- pest or weed control at 5 g/ha (DIGSA [12]; Digitaria sanguinalis, 504 h, 5 g/ha): 90%
- pest or weed control at 20 g/ha (DIGSA [12]; Digitaria sanguinalis, 504 h, 20 g/ha): 100%
- pest or weed control at 20 g/ha (MATIN [13]; Tripleurospermum inodorum, 504 h): 80%
- pest or weed control at 20 g/ha (PHBPU; Ipomoea purpurea, 504 h, dosage 20 g/ha): 80%
- pest or weed control at 20 g/ha (VERPE [14]; Veronica persica, 504 h): 90%
- pest or weed control at 5 g/ha (ALOMY [20]; dosage 5 g/ha): 80%
- pest or weed control at 20 g/ha (ALOMY [20]; dosage 20 g/ha): 100%
- pest or weed control at 80 g/ha (VERPE [15]; Veronica persica, 504 h): 90%
- pest or weed control at 20 g/ha (AMARE [16]; Amaranthus retroflexus, 504 h): 100%
- pest or weed control at 5 g/ha (ABUTH [17]; Abutilon theophrasti, 504 h, dosage 5 g/ha): 90%
- pest or weed control at 20 g/ha (ABUTH [17]; Abutilon theophrasti, 504 h, dosage 20 g/ha): 90%
